Measurements as given in patent US20050118310A1, “Formulations of compounds derived from natural sources and their use with irradiation for food preservation” (priority 2001, published 2005).
Marks after values point to notes of the source that are not given here.

Assays:
[1] = tested on: E. coli; experiment: Effect of carvacrol concentration on survival of E. coli in ground beef irradiated at 0.25 kGy; format: cell-based, Escherichia coli (ATCC 25922); conditions: for Increase in Sensitivity: vs 0% carvacrol
Source text: (§1) The irradiation treatments of ground beef samples for D10 determination was done using UC-15B irradiator (MDS-Nordion International Inc., Kanata, ON, Canada) equipped with a ^60Co source at a dose rate of 14.42 kGy/h). Irradiation doses used for D10 determination were ranged from 0.1 to 0.6 kGy for E. coli and from 0.50 to 2.0 kGy for S. typhi. Under frozen condition, the irradiation doses ranged from 0.1 to 0.7 kGy for E. coli and from 0.5 to 3.0 kGy for S. typhi. For the determination of the effect of various concentrations of carvacrol on the irradiation sensitivity, samples were irradiated at 0.25 kGy for E. coli and at 0.5 kGy for S. typhi. Irradiation doses used for D10 determination in chicken breast ranged from 0.1 to 0.7 kGy for E. coli and from 0.25 to 2.0 kGy for S. typhi. Samples were analysed immediately after irradiation to determine the microbial count.
(§2) Samples were homogenised for 2 min in sterile peptone water (0.1%) using a Lab-blender 400 stomacher (Laboratory Equipment, London, UK). From this mixture, serial dilutions were prepared and appropriate ones were pour-plated in tryptic soy agar (TSA) (Difco, Laboratories, Detroit, Mich., USA) and incubated at 35° C., 24 hours for the numeration of E. coli and S. typhi.
(§3) The effect of various concentrations of carvacrol in irradiated ground beef was evaluated in order to determine if lower concentrations of carvacrol could also increase the irradiation sensitivity of E. coli and S. typhi in ground beef. For these experiments, sterile ground beef was contaminated with either E. coli or S. typhi to a final concentration of 10^5 CFU/g. Various concentrations of carvacrol ranging from 0 to 2.0% were added to the ground beef samples and transferred in portions of 25 g each to sterile petri plates (60×15 nmu) then stored at 4° C. until irradiation treatment (approximately 15 h).

[2] = tested on: S. typhi; experiment: Effect of carvacrol concentration on survival of S. typhi in ground beef irradiated at 0.5 kGy; format: cell-based, Salmonella typhi (ATCC 19430); conditions: ground beef irradiated at 0.50 kGy; for Increase in Sensitivity: vs 0% carvacrol
Source text: as §1, §2, §3

`Cc1ccc(C(C)C)cc1O` [Carvacrol, carvacrol] was tested, and the “Log CFU/g” value ([1]; carvacrol 0.2%) was 2.948 ± 0.088^b Log CFU/g, the “Increase in Sensitivity” value ([1]; carvacrol 0.2%) was 4.8% and the “Log CFU/g” value ([1]; carvacrol 0.4%) was 2.948 ± 0.068^b Log CFU/g. The “Increase in Sensitivity” value ([1]; carvacrol 0.4%) was 4.8%, the “Log CFU/g” value ([1]; carvacrol 0.6%) was 2.660 ± 0.037^c Log CFU/g and the “Increase in Sensitivity” value ([1]; carvacrol 0.6%) was 14.1%. The “Log CFU/g” value ([1]; carvacrol 0.8%) was 1.198 ± 0.065^d Log CFU/g, the “Increase in Sensitivity” value ([1]; carvacrol 0.8%) was 61.3% and the “Log CFU/g” value ([1]; carvacrol 1.0%) was 0.843 ± 0.000^e Log CFU/g. For the same compound, the “Increase in Sensitivity” value ([1]; carvacrol 1.0%) was 72.8%, the “Log CFU/g” value ([1]; carvacrol […]) was 0.000 ± 0.000^f Log CFU/g and the “Increase in Sensitivity” value ([1]; carvacrol […]) was 100%. The “Log CFU/g” value ([2]; carvacrol 0.50%) was 3.526 ± 0.061^b Log CFU/g, the “Increase in Sensitivity” value ([2]; carvacrol 0.50%) was 15.4% and the “Log CFU/g” value ([2]; carvacrol 1.00%) was 2.545 ± 0.112^d Log CFU/g. The “Increase in Sensitivity” value ([2]; carvacrol 1.00%) was 39.0%, the “Log CFU/g” value ([2]; carvacrol 1.75%) was 0.000 ± 0.000^g Log CFU/g and the “Increase in Sensitivity” value ([2]; carvacrol 1.75%) was 100%. For the same compound, the “Log CFU/g” value ([2]; carvacrol 2.00%) was 0.000 ± 0.000^g Log CFU/g and the “Increase in Sensitivity” value ([2]; carvacrol 2.00%) was 100%.
